The text below walks through data of patent US10174053B2, “2 substituted cephem compounds” (Glaxo Group Limited, priority 2012, dated 2019).

Structures are written as SMILES. Values after ≈ are worked out from the molar mass of the structure shown.

Common to all, as to test: In vitro antimicrobial activity, MIC by broth microdilution (CLSI)
What all share (type): cell-based

The test system of experiment [1] is A. baumannii JMI7. As to conditions: Acinetobacter baumannii, JMI7; PER-1, OXA-23, 51, ESBL and OXA-type carbapenemase producing strain; 5×10^5 cfu/mL; cation-adjusted Iso-Sensitest broth containing human Apo-transferrin; read-out: Minimum Inhibitory Concentration (MIC) A. baumannii JMI:7. As to the method:
(§1) Compound (I) of the invention was evaluated for in vitro antimicrobial activity thereof.
(§2) Measurement of Minimum Inhibitory Concentration (MIC: μg/mL) was conducted according to CLSI (Clinical and Laboratory Standards Institute) method, and the amount of bacteria for inoculation was 5×10^5 cfu/mL, and cation-adjusted Iso-Sensitest broth containing human Apo-transferrin was used as a test medium, and the experiment was conducted using broth microdilution method. The bacteria used are listed below.

The test system of experiment [2] is E. Coli JMI1890. The following applies: Escherichia coli; PER-1, TEM-1, ESBL producing strain; 5×10^5 cfu/mL; cation-adjusted Iso-Sensitest broth containing human Apo-transferrin; read-out: Minimum Inhibitory Concentration (MIC) E. Coli JMI:1890. The procedure: as §1, §2
For experiment [3], the system named is A. baumannii JMI2346. As to conditions: Acinetobacter baumannii, JMI2346; OXA-51, TEM, ESBL and OXA-type carbapenemase producing strain; 5×10^5 cfu/mL; cation-adjusted Iso-Sensitest broth containing human Apo-transferrin; read-out: Minimum Inhibitory Concentration (MIC) A. baumannii JMI:2346. The procedure:
as §1, §2

In experiment [4] the test system is K. pneumoniae SR01358. As to conditions: Klebsiella pneumoniae, SR01358; KPC-2, ESBL and KPC-type carbapenemase producing strain; 5×10^5 cfu/mL; cation-adjusted Iso-Sensitest broth containing human Apo-transferrin; read-out: Minimum Inhibitory Concentration (MIC) K. pneumoniae SR01358. The procedure:
as §1, §2

As to `C[C@@H]1S[C@@H]2[C@H](NC(=O)/C(=N\OC(C)(C)C(=O)[O-])c3csc(N)n3)C(=O)N2C(C(=O)[O-])=C1C[N+]1(C)[C@@H]2CC[C@H]1C[C@@H](NC(=O)c1cc(O)c(O)c(F)c1)C2.[Na+]` (some centres unmarked) [Compound I-71], the MIC was 0.5 µg/mL in experiment [1], 0.25 µg/mL in experiment [2], 2 µg/mL in experiment [3] and at most 0.031 µg/mL in experiment [4].
As for `C[C@@H]1S[C@@H]2[C@H](NC(=O)/C(=N\OC(C)(C)C(=O)[O-])c3csc(N)n3)C(=O)N2C(C(=O)[O-])=C1C[N+]12CCC(CNC(=O)c3cc(O)c(O)c(F)c3)(CC1)CC2.[Na+]` [Compound I-72], the MIC in experiment [1] was 1 µg/mL; in experiment [2], 0.125 µg/mL; in experiment [3], 4 µg/mL; in experiment [4], at most 0.031 µg/mL.
In the case of `C[C@@H]1S[C@@H]2[C@H](NC(=O)/C(=N\OC(C)(C)C(=O)[O-])c3csc(N)n3)C(=O)N2C(C(=O)[O-])=C1C[N+]12CCC(CN3C(=O)c4cc(O)c(O)cc4C3=O)(CC1)CC2.[Na+]` [Compound I-73], the MIC was 0.25 µg/mL in experiment [1], 0.063 µg/mL in experiment [2], 2 µg/mL in experiment [3] and at most 0.031 µg/mL in experiment [4].
For `C[C@@H]1S[C@@H]2[C@H](NC(=O)/C(=N\OC(C)(C)C(=O)[O-])c3csc(N)n3)C(=O)N2C(C(=O)[O-])=C1C[N+]1(CCNC(=O)C(=O)c2ccc(O)c(O)c2Cl)CCCC1.[Na+]` [Compound I-74], the MIC in experiment [1] is 0.25 µg/mL; in experiment [2], 0.25 µg/mL; in experiment [3], 4 µg/mL; in experiment [4] it was at most 0.031 µg/mL.
On to `C[C@@H]1S[C@@H]2[C@H](NC(=O)/C(=N\OC(C)(C)C(=O)[O-])c3csc(N)n3)C(=O)N2C(C(=O)[O-])=C1C[N+]12CCC(CC1)N(C(=O)C(=O)c1ccc(O)c(O)c1Cl)CC2.[Na+]` [Compound I-75], for which the MIC in experiment [1] is 0.25 µg/mL; in experiment [2], 0.125 µg/mL; in experiment [3] it was 4 µg/mL; in experiment [4] it was at most 0.031 µg/mL.
With `C[C@@H]1S[C@@H]2[C@H](NC(=O)/C(=N\OC(C)(C)C(=O)[O-])c3csc(N)n3)C(=O)N2C(C(=O)[O-])=C1C[N+]12CCC[C@H]1CN(C(=O)C(=O)c1ccc(O)c(O)c1Cl)CC2.[Na+]` (some centres unmarked) [Compound I-76], the MIC was 0.5 µg/mL in experiment [1], 0.25 µg/mL in experiment [2], 4 µg/mL in experiment [3] and at most 0.031 µg/mL in experiment [4].
Turning to `C[C@@H]1S[C@@H]2[C@H](NC(=O)/C(=N\OC(C)(C)C(=O)[O-])c3csc(N)n3)C(=O)N2C(C(=O)[O-])=C1C[N+]1(C)[C@@H]2CC[C@H]1C[C@@H](N1C(=O)c3cc(O)c(O)cc3C1=O)C2.[Na+]` (some centres unmarked) [Compound I-77], the MIC in experiment [1] is 0.5 µg/mL; in experiment [2] it was 0.25 µg/mL; in experiment [3], 1 µg/mL; in experiment [4], at most 0.031 µg/mL.
`C[C@@H]1S[C@@H]2[C@H](NC(=O)/C(=N\OC(C)(C)C(=O)[O-])c3csc(N)n3)C(=O)N2C(C(=O)[O-])=C1C[N+]12CCC(CNC(=O)C(=O)c3cc(O)c(O)c(F)c3)(CC1)CC2.[Na+]` [Compound I-81]: the MIC in experiment [1] was 2 µg/mL; in experiment [2] it was 0.5 µg/mL; in experiment [3], 8 µg/mL; in experiment [4], at most 0.031 µg/mL.
Regarding `C[C@@H]1S[C@@H]2[C@H](NC(=O)/C(=N\OC(C)(C)C(=O)[O-])c3csc(N)n3)C(=O)N2C(C(=O)[O-])=C1C[N@+]1(C)[C@@H]2CC[C@H]1C[C@@H](NC(=O)C(=O)c1cc(O)c(O)c(F)c1)C2.[Na+]` [Compound I-83], the MIC is 0.5 µg/mL in experiment [1], 0.063 µg/mL in experiment [2], 2 µg/mL in experiment [3] and at most 0.031 µg/mL in experiment [4].
Turning to `C[C@@H]1S[C@@H]2[C@H](NC(=O)/C(=N\OC(C)(C)C(=O)[O-])c3csc(N)n3)C(=O)N2C(C(=O)[O-])=C1C[N+]1(CCNC(=O)C(=O)c2cc(O)c(O)c(F)c2)CCCC1.[Na+]` [Compound I-84], the MIC in experiment [1] is 1 µg/mL; in experiment [2], 2 µg/mL; in experiment [3], 16 µg/mL; in experiment [4], at most 0.031 µg/mL.
In the case of `C[C@@H]1S[C@@H]2[C@H](NC(=O)/C(=N\OC(C)(C)C(=O)[O-])c3csc(N)n3)C(=O)N2C(C(=O)[O-])=C1C[N+]12CCC[C@H]1CN(C(=O)C(=O)c1cc(O)c(O)c(F)c1)CC2.[Na+]` (some centres unmarked) [Compound I-85], the MIC in experiment [1] is 2 µg/mL; in experiment [2] it was 0.5 µg/mL; in experiment [3], 8 µg/mL; in experiment [4], 0.25 µg/mL.
For the compound `C[C@@H]1S[C@@H]2[C@H](NC(=O)/C(=N\OC(C)(C)C(=O)[O-])c3csc(N)n3)C(=O)N2C(C(=O)O)=C1C[N+]1(CCNC(=O)c2cn(C3CC3)c3cc(O)c(O)c(Cl)c3c2=O)CCCC1` [Compound I-90], the MIC in experiment [1] was 0.5 µg/mL (≈ 0.572 µM); in experiment [2], 1 µg/mL (≈ 1.14 µM); in experiment [3] it was 8 µg/mL (≈ 9.16 µM); in experiment [4], at most 0.031 µg/mL.
Turning to `C[C@@H]1S[C@@H]2[C@H](NC(=O)/C(=N\OC(C)(C)C(=O)[O-])c3csc(N)n3)C(=O)N2C(C(=O)O)=C1C[N+]12CCC(CNC(=O)/C(=N\O)c3ccc(O)c(O)c3)(CC1)CC2` [Compound I-92], the MIC in experiment [1] stood at 4 µg/mL (≈ 4.99 µM); in experiment [2] it was 2 µg/mL (≈ 2.5 µM); in experiment [3], 16 µg/mL (≈ 20 µM); in experiment [4] it was 0.125 µg/mL (≈ 0.156 µM).
Regarding `C[C@@H]1S[C@@H]2[C@H](NC(=O)/C(=N\OC(C)(C)C(=O)[O-])c3csc(N)n3)C(=O)N2C(C(=O)O)=C1C[N+]12CCC(CNC(=O)/C(=N\O)c3ccc(O)c(O)c3Cl)(CC1)CC2` [Compound I-94], the MIC turned out to be 1 µg/mL (≈ 1.2 µM) in experiment [1], 0.5 µg/mL (≈ 0.599 µM) in experiment [2], 4 µg/mL (≈ 4.79 µM) in experiment [3] and 0.063 µg/mL (≈ 0.0754 µM) in experiment [4].
`CO/N=C(\C(=O)NCC12CC[N+](CC3=C(C(=O)O)N4C(=O)[C@@H](NC(=O)/C(=N\OC(C)(C)C(=O)[O-])c5csc(N)n5)[C@H]4S[C@H]3C)(CC1)CC2)c1ccc(O)c(O)c1Cl` [Compound I-96]: the MIC is 1 µg/mL (≈ 1.18 µM) in experiment [1], 0.125 µg/mL (≈ 0.147 µM) in experiment [2], 8 µg/mL (≈ 9.42 µM) in experiment [3] and at most 0.031 µg/mL in experiment [4].
`C[C@@H]1S[C@@H]2[C@H](NC(=O)/C(=N\OC(C)(C)C(=O)[O-])c3csc(N)n3)C(=O)N2C(C(=O)O)=C1C[N+]12CCC(CNC(=O)/C(=N\OCC(=O)O)c3ccc(O)c(O)c3Cl)(CC1)CC2` [Compound I-98]: the MIC in experiment [1] was 0.5 µg/mL (≈ 0.56 µM); in experiment [2] it was 0.063 µg/mL (≈ 0.0705 µM); in experiment [3], 4 µg/mL (≈ 4.48 µM); in experiment [4], at most 0.031 µg/mL.
For the compound `C[C@@H]1S[C@@H]2[C@H](NC(=O)/C(=N\OC(C)(C)C(=O)O)c3csc(N)n3)C(=O)N2C(C(=O)O)=C1C[N+]12CCC(CNC(=O)/C(=N\OC(C)(C)C(=O)[O-])c3ccc(O)c(O)c3Cl)(CC1)CC2` [Compound I-99], the MIC in experiment [1] is 2 µg/mL (≈ 2.17 µM); in experiment [2], 1 µg/mL (≈ 1.09 µM); in experiment [3] it was 16 µg/mL (≈ 17.4 µM); in experiment [4] it was at most 0.031 µg/mL.
The corresponding values for `C[C@@H]1S[C@@H]2[C@H](NC(=O)/C(=N\OC(C)(C)C(=O)[O-])c3csc(N)n3)C(=O)N2C(C(=O)O)=C1C[N+]12CCC(CNC(=O)c3ccc(O)c(O)c3Cl)(CC1)C2` [Compound I-100] are 0.5 µg/mL (≈ 0.642 µM), 0.125 µg/mL (≈ 0.161 µM), 1 µg/mL (≈ 1.28 µM) and 0.063 µg/mL (≈ 0.0809 µM).
The matching figures for `C[C@@H]1S[C@@H]2[C@H](NC(=O)/C(=N\OC(C)(C)C(=O)[O-])c3csc(N)n3)C(=O)N2C(C(=O)O)=C1C[N+]12CCC(CNC(=O)/C(=N\OCC(=O)O)c3ccc(O)c(O)c3Cl)(CC1)C2` [Compound I-101]: 0.25 µg/mL (≈ 0.284 µM), 0.063 µg/mL (≈ 0.0716 µM), 0.5 µg/mL (≈ 0.569 µM) and at most 0.031 µg/mL.
`C[C@@H]1S[C@@H]2[C@H](NC(=O)/C(=N\OC(C)(C)C(=O)[O-])c3csc(N)n3)C(=O)N2C(C(=O)O)=C1C[N+]12CCC(CNC(=O)/C(=N\O)c3ccc(O)c(O)c3Cl)(CC1)C2` [Compound I-102]: the MIC in experiment [1] is 0.5 µg/mL (≈ 0.609 µM); in experiment [2] it was 0.125 µg/mL (≈ 0.152 µM); in experiment [3], 2 µg/mL (≈ 2.44 µM); in experiment [4], at most 0.031 µg/mL.
Consider `CO/N=C(\C(=O)NCC12CC[N+](CC3=C(C(=O)O)N4C(=O)[C@@H](NC(=O)/C(=N\OC(C)(C)C(=O)[O-])c5csc(N)n5)[C@H]4S[C@H]3C)(CC1)C2)c1ccc(O)c(O)c1Cl` [Compound I-104], for which the MIC in experiment [1] was 1 µg/mL (≈ 1.2 µM); in experiment [2], 0.125 µg/mL (≈ 0.15 µM); in experiment [3] it was 1 µg/mL (≈ 1.2 µM); in experiment [4], at most 0.031 µg/mL.
Take `C[C@@H]1S[C@@H]2[C@H](NC(=O)/C(=N\OC(C)(C)C(=O)[O-])c3csc(N)n3)C(=O)N2C(C(=O)[O-])=C1C[N+]12CCC(CNC(=O)C(=O)c3ccc(O)c(O)c3)(CC1)CC2.[Na+]` [Compound I-107]: the MIC is 2 µg/mL in experiment [1], 0.5 µg/mL in experiment [2], 4 µg/mL in experiment [3] and at most 0.031 µg/mL in experiment [4].
Consider `C[C@@H]1S[C@@H]2[C@H](NC(=O)/C(=N\OC(C)(C)C(=O)[O-])c3csc(N)n3)C(=O)N2C(C(=O)[O-])=C1C[N+]12CCC(CC1)N(C(=O)C(=O)c1ccc(O)c(O)c1)CC2.[Na+]` [Compound I-108], for which the MIC in experiment [1] was 0.5 µg/mL; in experiment [2] it was 0.5 µg/mL; in experiment [3], 2 µg/mL; in experiment [4] it was at most 0.031 µg/mL.
